# Test results published in patent US6943183B2 (Pfizer Inc, priority 2000, dated 2005).
# Target: T1, SF9 affinity purified rat FPT (Rattus norvegicus, UniProt Q02293+Q04631)
# T1 construct: made in house; host or cells: Sf9 insect cells
# Test: PFT (FPT) inhibitory activity assay, radiolabeled farnesyl pyrophosphate and biotinyl peptide, streptavidin beads
# Format: biochemical
# Conditions: HEPES buffer pH 7.4, 30° C., 30 minutes; read-out: FTase IC50
# Method: The PFT or FPT inhibitory activity of compounds of the present invention were assayed in HEPES buffer (pH 7.4) containing 5 mM potassium phosphate and 20 μM ZnCl2. The solution also contained 5 mM DTT (dithiothreitol), 5 mM MgCl2, and 0.1% PEG 8000. Assays were performed in 96 well plates (Wallec) and employed solutions composed of varying concentrations of a compound of the present invention in 10% DMSO (dimethylsulfoxide). […] After incubation at 30° C. for 30 minutes, the reaction was terminated by diluting the reaction 2.5-fold with a stop buffer containing 1.5 M magnesium acetate, 0.2 M H3PO4, 0.5% BSA (bovine serum albumin), and strepavidin beads (Amersham) at a concentration of 1.3 mg/mL. […] The assay was also carried out without 5 mM potassium phosphate.
row,IC50 [nM],Compound
1,0.45,"O=C(NC(CO)CO)c1ccc(SCc2c(O[C@H](Cn3ccnc3)c3ccccc3)ccc3c2CCCC3=O)cc1 [Compound 233, N-[2-Hydroxy-1-(hydroxymethyl)ethyl]-4-{[(2-{[(1S)-2-(1H-imidazol-1-yl)-1-phenylethyl]oxy}-5-oxo-5,6,7,8-tetrahydro-1-naphthalenyl)methyl]sulfanyl}benzamide]"
2,20,"COC(=O)c1ccc(S(=O)(=O)Cc2c(O[C@H](Cn3ccnc3)c3ccccc3)ccc3c2CCCC3=O)cc1 [Compound 155, Methyl 4-{[(2-{[(1S)-2-(1H-Imidazol-1-yl)-1-phenylethyl]oxy}-5-oxo-5,6,7,8-tetrahydro-1-naphthalenyl)methyl]sulfonyl}benzoate]"
3,4,"COC(=O)c1ccccc1OCc1c(O[C@H](Cn2ccnc2)c2ccccc2)ccc2c1CCCC2=O [Compound 81, Methyl 2-{[2-((1S)-2-imidazolyl-1-phenylethoxy)-5-oxo-6,7,8-trihydronaphthyl]methoxy}benzoate]"
4,4,"N#Cc1ccc(Cc2c(O[C@H](Cn3ccnc3)c3ccccc3)ccc3c2CCCC3=O)cc1 [Compound 33, 4-{[2-((1S)-2-Imidazolyl-1-phenylethoxy)-5-oxo-6,7,8-trihydronaphthyl]methyl}benzenecarbonitrile]"
5,3.5,"O=C1CCCc2c1ccc(O[C@H](Cn1ccnc1)c1ccccc1)c2CNS(=O)(=O)c1ccc(F)cc1F [Compound 42b, 2,4-Difluoro-N-[2-((S)-2-imidazol-1-yl-1-phenyl-ethoxy)-5-oxo-5,6,7,8-tetrahydro-naphthalen-1-ylmethyl]-benzenesulfonamide; compound with trifluoro-acetic acid]"
6,2,"O=C1CCCc2c1ccc(O[C@H](Cn1ccnc1)c1ccccc1)c2Cc1ccccc1 [Compound 45, 6-((1S)-2-imidazolyl-1-phenylethoxy)-5-benzyl-2,3,4-trihydro-naphthalen-one]"
7,0.2,"C=CCNC(=O)c1ccccc1S(=O)(=O)Cc1c(O[C@H](Cn2ccnc2)c2ccccc2)ccc2c1CCCC2=O [Compound 207, N-Allyl-2-{[(2-{[(1S)-2-(1H-imidazol-1-yl)-1-phenylethyl]oxy}-5-oxo-5,6,7,8-tetrahydro-1-naphthalenyl)methyl]sulfonyl}benzamide]"
8,0.2,"C[C@@H](O)CNC(=O)c1ccccc1SCc1c(O[C@H](Cn2ccnc2)c2ccccc2)ccc2c1CCCC2=O [Compound 194, N-[(2R)-2-Hydroxypropyl]-2-{[(2-{[(1S)-2-(1H-imidazol-1-yl)-1-phenylethyl]oxy}-5-oxo-5,6,7,8-tetrahydro-1-naphthalenyl)methyl]sulfanyl}benzamide]"
9,0.7,"CC(O)CNC(=O)c1ccc(S(=O)(=O)Cc2c(O[C@H](Cn3ccnc3)c3ccccc3)ccc3c2CCCC3=O)cc1 (stereo partly drawn) [Compound 253, N-(2-Hydroxypropyl)-4-{[(2-{[(1S)-2-(1H-imidazol-1-yl)-1-phenylethyl]oxy}-5-oxo-5,6,7,8-tetrahydro-1-naphthalenyl)methyl]sulfonyl}benzamide]"
10,2,"O=C(O)c1ccccc1SCc1c(O[C@H](Cn2ccnc2)c2ccccc2)ccc2c1CCCC2=O [Compound 5, 2-{[2-((1S)-2-Imidazolyl-1-phenylethoxy)-5-oxo-6,7,8-trihydronaphenyl]methylthio}benzoic acid]"
11,8,"CN(C)CCNC(=O)c1cccc(SCc2c(O[C@H](Cn3ccnc3)c3ccccc3)ccc3c2CCCC3=O)c1 [Compound 178, N-[2-(Dimethylamino)ethyl]-3-{[(2-{[(1S)-2-(1H-imidazol-1-yl)-1-phenylethyl]oxy}-5-oxo-5,6,7,8-tetrahydro-1-naphthalenyl)methyl]sulfanyl}benzamide]"
12,5.5,"O=C(O)c1ccccc1S(=O)(=O)Cc1c(O[C@H](Cn2ccnc2)c2ccccc2)ccc2c1CCCC2=O [Compound 159, 2-{[(2-{[(1S)-2-(1H-Imidazol-1-yl)-1-phenylethyl]oxy}-5-oxo-5,6,7,8-tetrahydro-1-naphthalenyl)methyl]sulfonyl}benzoic Acid]"
13,6,O=C1CCCc2c1ccc(O[C@H](Cn1ccnc1)c1ccccc1)c2COc1ccc(Oc2ccccc2)cc1 [Compound 97]
14,1.7,"O=C1CCCc2c1ccc(O[C@H](Cn1ccnc1)c1ccccc1)c2CN1C(=O)c2ccccc2C1=O [Compound 43, 2-{[2-((1S)-2-imidazolyl-1-phenylethoxy)-5-oxo-6,7,8-trihydronaphenyl]methyl}isoindoline-1,3-dione]"
15,3,"N#Cc1ccccc1NCc1c(O[C@H](Cn2ccnc2)c2ccccc2)ccc2c1CCCC2=O [Compound 149, 2-{[2-((S)-2-Imidazol-1-yl-1-phenyl-ethoxy)-5-oxo-5,6,7,8-tetrahydro-napthalen-1-ylmethyl]-amino}-benzonitrile]"
16,0.28,"O=C(NC(CO)CO)c1ccccc1S(=O)(=O)Cc1c(O[C@H](Cn2ccnc2)c2ccccc2)ccc2c1CCCC2=O [Compound 237, N-[2-Hydroxy-1-(hydroxymethyl)ethyl]-2-{[(2-{[(1S)-2-(1H-imidazol-1-yl)-1-phenylethyl]oxy}-5-oxo-5,6,7,8-tetrahydro-1-naphthalenyl)methyl]sulfonyl}benzamide]"
17,2.5,"O=C(Nc1c(O[C@H](Cn2ccnc2)c2ccccc2)ccc2c1CCCC2=O)c1cccnc1Cl [Compound 40e, N-[2-((S)-2-Imidazol-1-yl-1-phenyl-ethoxy)-5-oxo-5,6,7,8-tetrahydro-naphthalen-1-yl]-2-chloro-nicotinamide]"
18,4,Cc1ccc(OCc2c(O[C@H](Cn3ccnc3)c3ccccc3)ccc3c2CCCC3=O)cc1 [Compound 100]
19,0.2,"O=C(NC1CCCC1)c1cccc(SCc2c(O[C@H](Cn3ccnc3)c3ccccc3)ccc3c2CCCC3=O)c1 [Compound 221, N-Cyclopentyl-3-{[(2-{[(1S)-2-(1H-imidazol-1-yl)-1-phenylethyl]oxy}-5-oxo-5,6,7,8-tetrahydro-1-naphthalenyl)methyl]sulfanyl}benzamide]"
20,6,"CN(C)CCNC(=O)c1ccccc1S(=O)(=O)Cc1c(O[C@H](Cn2ccnc2)c2ccccc2)ccc2c1CCCC2=O [Compound 180, N-[2-(Dimethylamino)ethyl]-2-{[(2-{[(1S)-2-(1H-imidazol-1-yl)-1-phenylethyl]oxy}-5-oxo-5,6,7,8-tetrahydro-1-naphthalenyl)methyl]sulfonyl}benzamide]"
21,31,"O=C1CCCc2c1ccc(O[C@H](Cn1ccnc1)c1ccccc1)c2NS(=O)(=O)c1ccccc1 [Compound 38, N-[2-((S)-2-Imidazol-1-yl-1-phenyl-ethoxy)-5-oxo-5,6,7,8-tetrahydro-naphthalen-1-yl]-benzenesulfonamide]"
22,5,"O=C1CCCc2c1ccc(O[C@H](Cn1ccnc1)c1ccccc1)c2CNc1ccc2c(c1)OCCO2 [Compound 152, 5-[(2,3-Dihydro-benzo[1,4]dioxin-6-ylamino)-methyl]-6-((S)-2-imidazol-1-yl-1-phenyl-ethoxy)-3,4-dihydro-2H-napthalen-1-one]"
23,2,"O=C1CCCc2c1ccc(O[C@H](Cn1ccnc1)c1ccccc1)c2CNS(=O)(=O)c1cc(Cl)sc1Cl [Compound 42d, 2,5-Dichloro-thiophene-3-sulfonic acid [2-((S)-2-imidazol-1-yl-1-phenyl-ethoxy)-5-oxo-5,6,7,8-tetrahydro-naphthalen-1-ylmethyl]-amide; compound with trifluoro-acetic acid]"

row,Compound,IC50 [nM]
1,O=C1CCCc2c1ccc(O[C@H](Cn1ccnc1)c1ccccc1)c2C[S+]([O-])c1ccccc1 (stereo partly drawn) [Compound 2],3
